The record followed here is US20120128654A1, “Allantoin Administration for the Treatment of Neurodegenerative Disease and Neurotrauma” (UNIVERSITY OF CINCINNATI, priority 2009, published 2012).

Series [1] in a line: Whole brain allantoin levels after subcutaneous allantoin pellets (blood brain barrier crossing). Type of series: in vivo, Sprague Dawley rats. Conditions: non-lesioned rats, s.c. allantoin pellets, three days following pellet implantation, relative to control rats. From the text:
Continuous s.c. delivery of INO, KO and ALL was achieved by implanting matrix-driven pellets into the s.c. space. Animals were anesthetized with isofluorane and prepared for surgery using sterile procedures. A small incision was made posterior to the scapula and the pellet was placed in the subscapular space contralateral to the incision. This placement technique prevents migration of the pellet towards the incision, thereby reducing the incidents of rejection. Finally, the incision was closed using aseptic procedures. To determine the roles of UA and allantoin in inosine-mediated neuroprotection, animals were treated with the urate oxidase inhibitor KO. This approach has been widely used to prevent the enzymatic metabolism of UA to allantoin in other rodent models of disease.
To measure brain allantoin levels, whole brains were freeze dried, ground into a fine powder and homogenized in 0.8 ml of 2.5% trichloroacetic acid (TCA) per 100 mg. The homogenate was centrifuged at 18,000 rpm for 15 min. […] The remaining supernatant was then analyzed for allantoin.
To determine the ability of allantoin to cross the intact blood brain barrier (BBB), non-lesioned rats received either allantoin pellets or sham implantation. […] Whole brain levels of allantoin were determined enzymatically.

The nature of series [2]: Oral allantoin administration, plasma allantoin levels in monkeys. Type of series: in vivo, African green monkey. On the procedure: To determine whether oral allantoin administration could increase plasma levels of allantoin in non-human primates, African green monkeys were fed allantoin (n=4). All monkeys were initially fed 26 mg/kg/day for 1 week, after which the allantoin concentration was increased to a level of 52 mg/kg/day for an additional week. The allantoin was mixed to the appropriate concentration in fruit juice and given to the monkeys to drink. For plasma analysis of allantoin venous blood was obtained from the right ventricle (rat) and collected from repeated blood draws (African green monkey). Blood was immediately centrifuged at 10,500 rpms (this needs to be in G) for 5 minutes. Supernatant was then removed and analyzed for allantoin. Enzymatic detection of allantoin was performed as previously described with the exception of reaction volumes being adjusted to accommodate the use of a 96 well microtiter plate (Muratsubaki et al., Enzymatic assay of allantoin in serum using allantoinase and allantoate amidohydrolase, Anal. Biochem. 359:161-166 (2006)). […] Following a 15 minute incubation, absorbance was read on a spectrometer at 340 nm. […] Following a 10 minute incubation absorbance was once again measured at 340 nm. The final absorbance was subtracted from the absorbance following the addition of allantoinase. […] Allantoin levels in plasma were determined utilizing the enzymatic detection assay. […]

Entries after “also recorded” stand apart in the source; their conditions may differ.

Regarding `NC(=O)NC1NC(=O)NC1=O` (stereo not drawn) [allantoin], the “whole brain allantoin levels” value in series [1] is recorded as “approximately double; also recorded: significant increase”. Further, in series [2] (African green monkey, oral, after one week at 52 mg/kg/day (following 1 week at 26 mg/kg/day), vs baseline, trough), the plasma allantoin levels entry is “tripling”. In series [2] (monkeys, oral allantoin 26 then 52 mg/kg/day, 1 week each), the negative health consequences entry was “Neither the rats nor the monkeys exhibited any obvious negative health consequences”.
